Experimental data reported in patent US11046745B2, “Peptide mimotopes of the CD3 T-cell co-receptor epsilon chain and uses thereof” (BioNTech SE, priority 2015, dated 2021).
Positions of bridges follow the written chain, without caps; N, C: chain ends. Residues, ends and D or L forms follow the SMILES beside them. *: point of attachment. Biotin = O=C1N[C@H]2[C@H](CS[C@H]2CCCCC(=O)*)N1

Tests used:
[1] = system: TR66 antibody (CD3ε specific antibody, clone TR66); test: Binding analysis using biolayer interferometry (BLI), Octet Red, biotinylated peptides on streptavidin sensors; settings: 500 nM TR66 antibody, one concentration
Procedure: FIG. 5. Comparative binding analysis of matured TR66 mimotopes aCD3-04-002 and aCD3-04-013 using biolayer interferometry (BLI) on an Octet Red system (fortéBIO). Biotinylated peptides were immobilized onto streptavidin (SA) sensors. After blocking with 1× blocking buffer and biocytin association and dissociaten rates of TR66 binding were recorded over a period of 2400 sec respectively. The antibody was used in a range of 1.5625 to 100 nM (1.5625, 3.125, 6.25, 12.5, 25, 50, 100 nM) for each analyzed peptide.
Binding analysis was performed using streptavidin (SA) sensors on an Octet Red system (fortéBIO). 5 μg/ml of biotinylated peptides were used for loading (200 μl per sensor). […] Remained biotin binding sites on coated streptavidin sensors were blocked using 100 μg/ml biocytin (Sigma-Aldrich) for 5 minutes. For binding mode analysis of different peptides 500 nM TR66 antibody was used in the association step. For detailed analysis the antibody was used in a range of 1.5625 to 100 nM (1.5625, 3.125, 6.25, 12.5, 25, 50, 100 nM) for each analyzed peptide. The following program was used: • Baseline: 1000 rpm for 180 sec. • Load: 1000 rpm for 900 sec. • Baseline: 1000 rpm for 180 sec. • Blocking: 1000 rpm for 300 sec. • Association: 1000 rpm for 1200-2400 sec. • Dissociation: 1000 rpm for 1200-2400 sec.
The peptides displaying the highest binding affinities from the peptide microarray experiments were synthesized by standard Fmoc-based solid-phase-synthesis protocols and purified (HPLC purity: >80%). The binding characteristics of each peptide were determined. In the first instance all peptides were analysed via biolayer interferometry (BLI) to get a first impression whether the respective variant has a significant binding property at all (yes/no binding, Table 2). At his point, only one TR66 concentration (500 nM) was tested. Except variants aCD3-04-010 and aCD3-04-012 all peptides show a measurable binding activity.

[2] = molecular target: TR66 antibody (CD3ε specific antibody, clone TR66); test: Binding analysis using peptide ELISA, biotinylated peptides on streptavidin plates, TR66
Procedure: FIG. 3. Binding analysis of phage derived variants using a peptide based ELISA. Biotinylated peptides were immobilized on streptavidin plates (Nunc) in a concentration of 0.75 μg/ml. After blocking 30 μg/ml TR66 or an unrelated antibody (control ab) were added and incubated for 1 h at 37° C. Binding was detected with an alkaline phosphatase conjugated goat anti-human IgG antibody (Sigma) and the chromogenic substrate PNPP (para-nitrophenyl phosphate). All reactions were performed as duplicates. SD values are presented as error bars.
For the detection of TR66 or OKT3 (Bio-X-Cell), the CD3 mimicking peptides were immobilized on streptavidin plates (Nunc) in a concentration of 0.75 μg/ml in PBS buffer for 1 hour at 37° C. Subsequently, the plate was washed three times with washing buffer (0.01% Tween-20 in PBS buffer) before it was blocked with 3% BSA in PBS overnight at 4° C. To detect TR66 or OKT3, the blocked plate was washed again three times with washing buffer followed by the addition of TR66 or OKT3 and incubation for 30 min at 37° C. After another washing step, it was incubated with an alkaline phosphatase conjugated Goat anti-human or anti-mouse IgG, Fe antibody (Jackson Immuno Research) for additional 30 min at 37° C. Finally, the plate was washed again before being incubated with 1.5 mg/ml of the substrate PNPP (para-nitrophenyl phosphate) in appropriate substrate buffer (1 M Diethanolamine, 0.05 mM MgCl2, 0.01% sodium azide, pH 9.8) for 30 min at RT in the dark. 3 M KOH was used to stop the enzymatic reaction. Absorbance was measured with a microplate reader (Infinite M200, Tecan). For dual wavelength analysis, 405 nm was chosen as measurement wavelength and 492 nm as reference wavelength. Absorbance values were calculated by subtraction of the measured values for the reference wavelength and for the measurement wavelength. Calculation of apparent KD values was done by fitting the data with Sigma Plot 10 using a two-site saturation binding model.

TR66 antibody = test: Peptide microarray incubated with TR66, fluorescently labelled secondary antibody; type: binding; settings: cyclic peptide immobilized through C-terminus; 1.0 μg/ml TR66; data not shown
Procedure: Peptides were synthesized and printed on peptide-microarray slides essentially as described previously (Funkner, A. et al., J. Mol. Biol. 425, 1340-1362 (2013)). In brief, the peptides were synthesized using SPOT synthesis (Wenschuh, H. et al., Biopolymers 55, 188-206 (2000)) cleaved from the solid support and cyclized (50% DMSO, PBS buffer pH 7-8, RT, 16 hours). Subsequently, all peptides were chemoselectively immobilized on functionalized glass slides as described earlier (Schnatbaum, K. et al., Biotechnol. J. 9, 545-554 (2014); Funkner, A. et al., J. Mol. Biol. 425, 1340-1362 (2013)). Each peptide was deposited on the microarray in triplicates.
The microarrays were incubated with 1.0 or 0.1 μg/ml TR66 in an HS 4800 microarray processing station (Tecan) for two hours at 30° C., followed by incubation with 1.0 μg/ml fluorescently labelled secondary antibody (Alexa647 anti-human Fe antibody; Jackson Immuno Research). Washing steps were performed prior every incubation step with 0.1% Tween-20 in 1×TBS. After the final incubation step the microarrays were washed (0.05% Tween-20 in 0.1×SSC) and dried in a stream of nitrogen. Each microarray was scanned using a GenePix Autoloader 4200AL (Molecular Devices, Pixel size: […]). Signal intensities were evaluated using GenePix Pro 7.0 analysis software (Molecular Devices). For each peptide, the mean of the three triplicates was calculated. […]

Yes/no binding, BLI [1]: Yes | Kd ([2]; TR66, mean of at least two individual measurements, two-site saturation binding model, read-out: Apparent KD, ELISA): 370 nM | TR66 binding after chemical synthesis, ELISA-based binding analysis (FIG. 3) ([2]; peptide 0.75 μg/ml, 30 μg/ml TR66): could be verified | TR66 binding on peptide microarray (TR66 antibody): strong binding
SMILES: C[C@H](N)C(=O)N[C@H]1CSSC[C@@H](C(=O)NCC(=O)NCC(=O)NCC(=O)N[C@@H](CO)C(=O)N[C@@H](CCCCNC(=O)CCCC[C@@H]2SC[C@@H]3NC(=O)N[C@@H]32)C(=O)O)NC(=O)[C@H](CCC(N)=O)NC(=O)[C@@H]2CCCN2C(=O)[C@H](CC(=O)O)NC(=O)CNC(=O)[C@@H]2CCCN2C(=O)[C@H](CCCNC(=N)N)NC(=O)[C@H]([C@@H](C)O)NC1=O [aCD3 C7C-4, ACTRPGDPQC-GGGS-K(Bio)] (H-ACTRPGDPQCGGGSK(Biotin)-OH; disulfide 2-10)
